Experiments:
[1] = molecular target: T1, Maltase-glucoamylase (Homo sapiens, UniProt O43451); assay: Mixed type inhibition of alpha-glucosidase (unknown origin) using p-nitrophenyl-alpha-D glucopyranoside as substrate incubated for 30 mins by Lineweaver-Burk plot analysis
[2] = molecular target: T1, Maltase-glucoamylase; assay: Non-competitive inhibition of alpha-glucosidase (unknown origin) using p-nitrophenyl-alpha-D glucopyranoside as substrate incubated for 30 mins by Lineweaver-Burk plot analysis

T1 sequence (O43451 whole entry): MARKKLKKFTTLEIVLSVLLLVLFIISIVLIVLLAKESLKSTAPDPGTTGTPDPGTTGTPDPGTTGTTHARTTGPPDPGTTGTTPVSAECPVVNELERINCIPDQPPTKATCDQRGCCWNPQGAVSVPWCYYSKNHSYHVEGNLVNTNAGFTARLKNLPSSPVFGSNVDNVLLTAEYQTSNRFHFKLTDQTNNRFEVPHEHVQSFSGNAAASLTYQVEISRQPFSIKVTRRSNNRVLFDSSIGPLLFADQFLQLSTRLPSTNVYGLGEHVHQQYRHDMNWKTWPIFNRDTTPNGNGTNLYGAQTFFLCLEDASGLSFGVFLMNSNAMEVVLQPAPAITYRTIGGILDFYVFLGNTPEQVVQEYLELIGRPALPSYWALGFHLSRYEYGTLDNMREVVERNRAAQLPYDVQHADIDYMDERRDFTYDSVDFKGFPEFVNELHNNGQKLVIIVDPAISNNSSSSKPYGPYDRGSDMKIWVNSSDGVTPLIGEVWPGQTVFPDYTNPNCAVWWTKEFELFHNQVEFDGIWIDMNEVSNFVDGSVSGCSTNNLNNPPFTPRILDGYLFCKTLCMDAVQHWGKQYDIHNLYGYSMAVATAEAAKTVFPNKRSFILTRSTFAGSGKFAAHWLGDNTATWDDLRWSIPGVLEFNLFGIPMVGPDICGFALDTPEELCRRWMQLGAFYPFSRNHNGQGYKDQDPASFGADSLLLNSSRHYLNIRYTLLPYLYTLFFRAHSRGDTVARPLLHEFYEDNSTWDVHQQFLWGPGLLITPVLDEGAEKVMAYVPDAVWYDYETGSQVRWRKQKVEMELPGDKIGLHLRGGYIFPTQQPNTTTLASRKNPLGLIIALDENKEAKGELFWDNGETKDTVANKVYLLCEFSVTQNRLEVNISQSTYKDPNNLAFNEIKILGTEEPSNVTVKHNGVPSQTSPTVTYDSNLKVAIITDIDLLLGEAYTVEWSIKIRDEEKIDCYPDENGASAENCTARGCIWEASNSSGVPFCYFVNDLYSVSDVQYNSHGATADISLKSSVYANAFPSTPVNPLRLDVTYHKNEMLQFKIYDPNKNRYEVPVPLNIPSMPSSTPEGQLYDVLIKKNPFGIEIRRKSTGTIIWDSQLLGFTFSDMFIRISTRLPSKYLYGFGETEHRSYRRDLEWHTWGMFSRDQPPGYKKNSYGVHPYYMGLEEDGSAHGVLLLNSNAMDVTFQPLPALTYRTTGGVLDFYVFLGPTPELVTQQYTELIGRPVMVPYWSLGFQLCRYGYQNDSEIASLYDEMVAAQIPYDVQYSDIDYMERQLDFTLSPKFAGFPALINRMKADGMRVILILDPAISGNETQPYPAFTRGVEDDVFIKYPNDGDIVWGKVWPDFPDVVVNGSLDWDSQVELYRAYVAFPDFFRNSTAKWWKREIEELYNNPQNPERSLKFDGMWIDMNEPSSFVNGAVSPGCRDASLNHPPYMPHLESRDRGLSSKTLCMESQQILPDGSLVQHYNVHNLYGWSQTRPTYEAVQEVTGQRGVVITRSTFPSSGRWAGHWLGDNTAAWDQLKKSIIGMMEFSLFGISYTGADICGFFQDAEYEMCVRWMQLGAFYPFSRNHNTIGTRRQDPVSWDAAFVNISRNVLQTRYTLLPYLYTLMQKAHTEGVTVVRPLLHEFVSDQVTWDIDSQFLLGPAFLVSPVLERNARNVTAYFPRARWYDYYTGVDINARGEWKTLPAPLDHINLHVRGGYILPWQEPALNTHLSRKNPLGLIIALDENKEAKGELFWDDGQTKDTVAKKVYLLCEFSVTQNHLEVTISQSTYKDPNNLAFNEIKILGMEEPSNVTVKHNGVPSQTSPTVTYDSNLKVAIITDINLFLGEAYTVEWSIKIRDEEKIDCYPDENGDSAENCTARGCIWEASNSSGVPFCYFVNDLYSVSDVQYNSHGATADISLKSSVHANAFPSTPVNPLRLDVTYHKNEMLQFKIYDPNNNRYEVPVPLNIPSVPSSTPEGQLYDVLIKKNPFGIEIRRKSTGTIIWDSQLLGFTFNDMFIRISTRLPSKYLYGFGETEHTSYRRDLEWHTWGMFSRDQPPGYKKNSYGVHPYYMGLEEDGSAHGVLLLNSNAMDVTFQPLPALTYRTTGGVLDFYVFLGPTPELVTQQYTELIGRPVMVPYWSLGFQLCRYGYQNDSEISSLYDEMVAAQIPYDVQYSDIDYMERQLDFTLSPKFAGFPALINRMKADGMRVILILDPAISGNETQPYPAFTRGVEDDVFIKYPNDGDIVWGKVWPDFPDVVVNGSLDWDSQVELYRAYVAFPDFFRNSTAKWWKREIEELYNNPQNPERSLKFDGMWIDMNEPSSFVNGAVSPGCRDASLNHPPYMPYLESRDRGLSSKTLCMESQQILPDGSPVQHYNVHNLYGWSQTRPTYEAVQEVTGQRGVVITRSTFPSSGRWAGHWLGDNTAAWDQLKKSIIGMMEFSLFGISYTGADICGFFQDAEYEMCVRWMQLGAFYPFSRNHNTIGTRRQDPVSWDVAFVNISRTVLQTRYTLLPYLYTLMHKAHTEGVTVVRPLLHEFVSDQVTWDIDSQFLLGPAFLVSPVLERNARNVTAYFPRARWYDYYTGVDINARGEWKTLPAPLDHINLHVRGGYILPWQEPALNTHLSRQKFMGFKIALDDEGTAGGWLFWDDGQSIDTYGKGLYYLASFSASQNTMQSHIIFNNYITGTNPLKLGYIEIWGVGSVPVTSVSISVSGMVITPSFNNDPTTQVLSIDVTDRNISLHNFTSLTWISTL

SMILES | Ki [1] | Ki [2]
CC(C)=CCc1cc(-c2oc3cc(O)c(CC=C(C)C)c(O)c3c(=O)c2O)cc(O)c1O [CHEBI:66727] | 2.3 µM | –
CC(C)=CCc1cc(C(=O)/C=C/c2ccc(O)c(O)c2)c(O)cc1O [broussochalcone A] | – | 5.3 µM

Source: BindingDB's records for doi:10.1016/j.ejmech.2020.112034 (Shiv Nadar University, 2020)
